# Earlier results as cited in patent US11160861B2, “Adjuvanting systems and water-free vaccine compositions comprising a polyI:C polynucleotide adjuvant and a lipid-based adjuvant” (priority 2015, dated 2021).
# Assays:
# [1] = variety of animal models and Phase I clinical trial in humans (Moyle 2008; Wiedemann 1991)
# murine DCs = conditions: in vitro stimulation of murine DCs, small amounts of adjuvant relative to other TLR agonists (Welters 2007)
smiles,measurement,setting,value
"CCCCCCCCCCCCCCCC(=O)N[C@@H](CSC[C@@H](COC(=O)CCCCCCCCCCCCCCC)OC(=O)CCCCCCCCCCCCCCC)C(=O)O [Pam3Cys, tripalmitoyl-S-glyceryl-cysteine]",Side effects,[1],no reported side effects
same,"Production of pro-inflammatory cytokines IL-12p40, IL-6 and TNFα",murine DCs,high levels
